Laboratory results published in ChEMBL document CHEMBL3608207, “Synthesis, characterization, evaluation and molecular dynamics studies of 5, 6-diphenyl-1,2,4-triazin-3(2H)-one derivatives bearing 5-substituted 1,3,4-oxadiazole as potential anti-inflammatory and analgesic agents” (Eur J Med Chem, 2015).

Experiments:
Rattus norvegicus [1] = test: Anti-inflammatory activity in rat model of acute inflammation assessed as inhibition of carrageenan-induced paw oedema dosed at equimolar oral dose relative to 10 mg/kg, po indomethacin dosed 1 hr before carrageenan injection and measured 2 hrs after carrageenan injection; format: functional
Rattus norvegicus [2] = test: Anti-inflammatory activity in rat model of acute inflammation assessed as inhibition of carrageenan-induced paw oedema dosed at equimolar oral dose relative to 10 mg/kg, po indomethacin dosed 1 hr before carrageenan injection and measured 3 hrs after carrageenan injection; format: functional
Rattus norvegicus [3] = test: Anti-inflammatory activity in rat model of acute inflammation assessed as inhibition of carrageenan-induced paw oedema dosed at equimolar oral dose relative to 10 mg/kg, po indomethacin dosed 1 hr before carrageenan injection and measured 5 hrs after carrageenan injection; format: functional
Rattus norvegicus [4] = test: Anti-inflammatory activity in rat model of acute inflammation assessed as inhibition of carrageenan-induced paw oedema dosed at equimolar oral dose relative to 10 mg/kg, po indomethacin dosed 1 hr before carrageenan injection and measured 6 hrs after carrageenan injection; format: functional
Rattus norvegicus [5] = test: Anti-inflammatory activity in rat assessed as inhibition of arachidonic acid-induced paw edema dosed at equimolar oral dose relative to 10 mg/kg, po indomethacin dosed 30 mins before arachidonic acid injection and measured 1 hr after arachidonic acid injection; format: functional
Rattus norvegicus [6] = test: Anti-inflammatory activity in rat model of sub-chronic inflammation assessed as inhibition of cotton pellet-induced granuloma by measuring weight of granulation dosed once daily at equimolar oral dose relative to 10 mg/kg, po indomethacin for seven consecutive days from day of cotton pellet insertion (94.13 +/- 8.1 mg); format: functional
Rattus norvegicus [7] = test: Anti-inflammatory activity in rat Freund's adjuvant induced arthritis model of chronic inflammation assessed as inhibition of right hind paw swelling at equimolar oral dose relative to 10 mg/kg, po indomethacin dosed after 14 days from day of adjuvant injection until day 21 and measured on day 12; format: functional
Rattus norvegicus [8] = test: Anti-inflammatory activity in rat Freund's adjuvant induced arthritis model of chronic inflammation assessed as inhibition of right hind paw swelling at equimolar oral dose relative to 10 mg/kg, po indomethacin dosed after 14 days from day of adjuvant injection until day 21 and measured on day 15; format: functional
Rattus norvegicus [9] = test: Anti-inflammatory activity in rat Freund's adjuvant induced arthritis model of chronic inflammation assessed as inhibition of right hind paw swelling at equimolar oral dose relative to 10 mg/kg, po indomethacin dosed after 14 days from day of adjuvant injection until day 21 and measured on day 18; format: functional
Rattus norvegicus [10] = test: (§1) Hepato-toxicity in rat Freund's adjuvant induced arthritis model of chronic inflammation assessed as assessed as SGOT level at equimolar oral dose relative to 10 mg/kg, po indomethacin dosed after 14 days from day of adjuvant injection until day 21 and measured on day 21 (reference value: 92.48 +/- 7.8 U/mL); format: organism-based; settings: in vivo, 336 h
Rattus norvegicus [11] = test: as §1, with “alkaline phosphatase” for “SGOT”, “17.82” for “92.48”, “1.2 U)” for “7.8 U/mL)”; format: organism-based; settings: in vivo, 336 h
Rattus norvegicus [12] = test: as §1, with “Renal toxicity” for “Hepato-toxicity”, “total protein” for “SGOT”, “1.78” for “92.48”, “0.11 g/dL)” for “7.8 U/mL)”; format: organism-based; settings: in vivo, 336 h
Rattus norvegicus [13] = test: as §1, with “Renal toxicity” for “Hepato-toxicity”, “total albumin” for “SGOT”, “1.77” for “92.48”, “0.12 g/dL)” for “7.8 U/mL)”; format: organism-based; settings: in vivo, 336 h
Rattus norvegicus [14] = test: as §1, with “Renal toxicity” for “Hepato-toxicity”, “creatinine” for “SGOT”, “0.62” for “92.48”, “0.049 mg/dL)” for “7.8 U/mL)”; format: organism-based; settings: in vivo, 336 h
Rattus norvegicus [15] = test: as §1, with “Renal toxicity” for “Hepato-toxicity”, “blood urea nitrogen” for “SGOT”, “23.48” for “92.48”, “1.8 mg/dL)” for “7.8 U/mL)”; format: organism-based; settings: in vivo, 336 h
Mus musculus [16] = test: Analgesic activity in Swiss albino mouse assessed as reduction in number of writhing episodes at equimolar oral dose relative to 10 mg/kg, po indomethacin measured 30 mins following acetic acid injection; format: functional
Mus musculus [17] = test: Analgesic activity in Swiss albino mouse assessed as reduction in formalin-induced paw licking by measuring time spent on licking during phase-1 at equimolar oral dose relative to 10 mg/kg, po indomethacin dosed 1 hr before formalin challenge and measured 30 mins after formalin injection; format: functional
Mus musculus [18] = test: Analgesic activity in Swiss albino mouse assessed as reduction in formalin-induced paw licking by measuring time spent on licking during phase-2 at equimolar oral dose relative to 10 mg/kg, po indomethacin dosed 1 hr before formalin challenge and measured 30 mins after formalin injection; format: functional
[19] = target: T1, Prostaglandin G/H synthase 1 (Ovis aries, UniProt P05979); test: Inhibition of ovine COX1 by oxidized TMPD detection based colorimetric assay
T1 sequence (P05979 whole entry): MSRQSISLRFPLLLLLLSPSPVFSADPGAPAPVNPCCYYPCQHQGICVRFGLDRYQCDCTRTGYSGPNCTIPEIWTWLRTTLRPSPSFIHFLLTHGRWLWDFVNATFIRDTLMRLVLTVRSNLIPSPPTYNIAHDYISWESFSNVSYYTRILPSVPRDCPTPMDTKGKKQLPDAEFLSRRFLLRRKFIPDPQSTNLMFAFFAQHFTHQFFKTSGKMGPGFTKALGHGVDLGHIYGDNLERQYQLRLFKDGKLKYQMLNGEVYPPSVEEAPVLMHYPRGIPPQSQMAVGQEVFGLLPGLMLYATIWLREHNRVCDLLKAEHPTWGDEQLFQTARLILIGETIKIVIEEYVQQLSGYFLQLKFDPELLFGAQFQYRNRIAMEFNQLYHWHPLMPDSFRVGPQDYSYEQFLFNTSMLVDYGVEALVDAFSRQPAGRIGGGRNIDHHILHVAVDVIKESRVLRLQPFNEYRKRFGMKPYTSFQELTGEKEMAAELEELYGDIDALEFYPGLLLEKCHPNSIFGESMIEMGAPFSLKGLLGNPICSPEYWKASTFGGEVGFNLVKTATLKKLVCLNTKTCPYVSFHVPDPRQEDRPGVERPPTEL

[20] = Octanol/water partition coefficient, log P of the compound by shake flask method; format: physicochemical
[21] = In-vitro anti-inflammatory activity assessed as inhibition of denaturation of bovine serum albumin at equimolar dose relative to 10 mg indomethacin; format: functional
Rattus norvegicus [22] = test: Toxicity in healthy albino rat assessed as induction of changes in autonomic or behavioural responses up to 500 mg/kg, po; format: organism-based; settings: in vivo
Rattus norvegicus [23] = test: Toxicity in healthy albino rat assessed as induction of tremors up to 500 mg/kg, po; format: organism-based; settings: in vivo
Rattus norvegicus [24] = test: Toxicity in healthy albino rat assessed as induction of convulsion up to 500 mg/kg, po; format: organism-based; settings: in vivo
Rattus norvegicus [25] = test: Toxicity in healthy albino rat assessed as induction of salivation up to 500 mg/kg, po; format: organism-based; settings: in vivo
Rattus norvegicus [26] = test: Toxicity in healthy albino rat assessed as induction of diarrhoea up to 500 mg/kg, po; format: organism-based; settings: in vivo
Rattus norvegicus [27] = test: Toxicity in healthy albino rat assessed as induction of lethargy up to 500 mg/kg, po; format: organism-based; settings: in vivo
Rattus norvegicus [28] = test: Toxicity in healthy albino rat assessed as induction of sleep up to 500 mg/kg, po; format: organism-based; settings: in vivo
Rattus norvegicus [29] = test: Toxicity in healthy albino rat assessed as induction of coma up to 500 mg/kg, po; format: organism-based; settings: in vivo

Row | Structure (SMILES) | inhibition (INH) (Rattus norvegicus [1]) | inhibition (INH) (Rattus norvegicus [2]) | inhibition (INH) (Rattus norvegicus [3]) | inhibition (INH) (Rattus norvegicus [4]) | inhibition (INH) (Rattus norvegicus [5]) | Activity (Rattus norvegicus [6]) | inhibition (INH) (Rattus norvegicus [7]) | inhibition (INH) (Rattus norvegicus [8]) | inhibition (INH) (Rattus norvegicus [9]) | Activity (Rattus norvegicus [10]) | Activity (Rattus norvegicus [11]) | Activity (Rattus norvegicus [12]) | Activity (Rattus norvegicus [13]) | Activity (Rattus norvegicus [14]) | Activity (Rattus norvegicus [15]) | inhibition (INH) (Mus musculus [16]) | inhibition (INH) (Mus musculus [17]) | inhibition (INH) (Mus musculus [18]) | IC50 [19] | logP [20] | other results
1 | Nc1ccc(-c2nnc(Cn3nc(-c4ccccc4)c(-c4ccccc4)nc3=O)o2)cc1 | 41.76% | 51.89% | 58.83% | 55.96% | 16.45% | 56.29 mg | 45.8% | 47.9% | 49.23% | 98.21 U/ml | 20.64 U | 1.86 g/dL | 1.87 g/dL | 0.86 mg/dL | 33.85 mg/dL | 71.85% | 12.45% | 74.57% | 43.4 µM | 3.72 | inhibition [21]: 80.3%; Activity (Rattus norvegicus [22]): Non-toxic; Activity (Rattus norvegicus [23]): Non-toxic; Activity (Rattus norvegicus [24]): Non-toxic; Activity (Rattus norvegicus [25]): Non-toxic; Activity (Rattus norvegicus [26]): Non-toxic; Activity (Rattus norvegicus [27]): Non-toxic; Activity (Rattus norvegicus [28]): Non-toxic; Activity (Rattus norvegicus [29]): Non-toxic
2 | COc1ccc(-c2nnc(Cn3nc(-c4ccccc4)c(-c4ccccc4)nc3=O)o2)cc1 | 38.71% | 48.11% | 55.25% | 52.71% | 13.71% | 58.51 mg | 41.05% | 43.46% | 45.78% | 103.17 U/ml | 22.11 U | 1.81 g/dL | 1.87 g/dL | 0.91 mg/dL | 40.62 mg/dL | 70.21% | 10.59% | 74.38% | 44.9 µM | 3.56 | inhibition [21]: 76.7%; Activity (Rattus norvegicus [22]): Non-toxic; Activity (Rattus norvegicus [23]): Non-toxic; Activity (Rattus norvegicus [24]): Non-toxic; Activity (Rattus norvegicus [25]): Non-toxic; Activity (Rattus norvegicus [26]): Non-toxic; Activity (Rattus norvegicus [27]): Non-toxic; Activity (Rattus norvegicus [28]): Non-toxic; Activity (Rattus norvegicus [29]): Non-toxic
3 | O=c1nc(-c2ccccc2)c(-c2ccccc2)nn1Cc1nnc(-c2ccc(O)cc2O)o1 | 44.47% | 53.27% | 59.07% | 57.56% | 19.19% | 56.11 mg | 43.97% | 49.82% | 52.44% | 99.35 U/ml | 19.56 U | 1.88 g/dL | 1.82 g/dL | 0.72 mg/dL | 38.67 mg/dL | 72.4% | 10.73% | 75.21% | 43.3 µM | 3.46 | inhibition [21]: 80.8%; Activity (Rattus norvegicus [22]): Non-toxic; Activity (Rattus norvegicus [23]): Non-toxic; Activity (Rattus norvegicus [24]): Non-toxic; Activity (Rattus norvegicus [25]): Non-toxic; Activity (Rattus norvegicus [26]): Non-toxic; Activity (Rattus norvegicus [27]): Non-toxic; Activity (Rattus norvegicus [28]): Non-toxic; Activity (Rattus norvegicus [29]): Non-toxic
4 | O=c1nc(-c2ccccc2)c(-c2ccccc2)nn1Cc1nnc(-c2ccc(Cl)cc2)o1 | 39.28% | 51.32% | 57.64% | 55.47% | 17.58% | 57.8 mg | 43.36% | 45.86% | 48.87% | 107.18 U/ml | 20.28 U | 1.91 g/dL | 1.8 g/dL | 0.78 mg/dL | 42.28 mg/dL | 73.26% | 12.11% | 75.85% | 44.2 µM | 3.91 | inhibition [21]: 78.2%; Activity (Rattus norvegicus [22]): Non-toxic; Activity (Rattus norvegicus [23]): Non-toxic; Activity (Rattus norvegicus [24]): Non-toxic; Activity (Rattus norvegicus [25]): Non-toxic; Activity (Rattus norvegicus [26]): Non-toxic; Activity (Rattus norvegicus [27]): Non-toxic; Activity (Rattus norvegicus [28]): Non-toxic; Activity (Rattus norvegicus [29]): Non-toxic
5 | O=c1nc(-c2ccccc2)c(-c2ccccc2)nn1Cc1nnc(-c2ccc([N+](=O)[O-])cc2)o1 | 41.42% | 49.6% | 55.96% | 52.27% | 12.26% | 58.07 mg | 41.78% | 43.82% | 45.9% | 102.38 U/ml | 19.92 U | 1.84 g/dL | 1.83 g/dL | 0.88 mg/dL | 39.24 mg/dL | 74.84% | 13.68% | 78.04% | 44.8 µM | 3.71 | inhibition [21]: 78.4%; Activity (Rattus norvegicus [22]): Non-toxic; Activity (Rattus norvegicus [23]): Non-toxic; Activity (Rattus norvegicus [24]): Non-toxic; Activity (Rattus norvegicus [25]): Non-toxic; Activity (Rattus norvegicus [26]): Non-toxic; Activity (Rattus norvegicus [27]): Non-toxic; Activity (Rattus norvegicus [28]): Non-toxic; Activity (Rattus norvegicus [29]): Non-toxic
